Consider 1 substance from patent publication US20230181520A1, “USE OF HYDROPEROXY ALCOHOLS AND THE DERIVATIVES THEREOF AS ANTIMICROBIAL AGENTS” (DEMETA, priority 2019, published 2023).

Type in all cases: cell-based
One test deals with Staphylococcus aureus. Kind of test: Surface antibacterial test, CFU count on support. The settings on record: S. aureus; 24 h of contact at ambient temperature; sample solution 10 000 ppm in DMSO dried on inert support. As to the method:
(§1) The tests were carried out at the surface: a solution of sample at 10 000 ppm in DMSO for a sample of HPA at 72% purity (i.e. […] of active material) was dried on an inert support. Once the solution had dried, a volume of inoculum of each bacterial strain was placed on the support in contact with the sample for 0 and 24 h at ambient temperature. In order to verify the nontoxicity of the DMSO, a pure solution of DMSO was dried on the support under the same conditions as the samples. A nontreated support (noted support control in FIG. 1) was also inoculated, in order to verify the stability of the strains under the conditions of the test. In order to quantify the contamination at each measurement time, a count was performed by spreading out, at the surface or in the mass, of decimal dilutions of the sample on TSA agar or Columbia agar (for C. acnes). The results were expressed in “colony-forming units” (CFUs) on the support. The Bacterial Strains Targeted are: Gram+: Cutibacterium acnes, Enterococcus hirae, Staphylococcus aureus

A further test has as its system Enterococcus hirae. In words: Surface antibacterial test, CFU count on support. The settings on record: E. hirae; 24 h of contact at ambient temperature; sample solution 10 000 ppm in DMSO dried on inert support. As to the method:
as §1

In another test the test system is Cutibacterium acnes. Kind of test: Surface antibacterial test, CFU count on support (Columbia agar). As to conditions: C. acnes; 24 h of contact at ambient temperature; sample solution 10 000 ppm in DMSO dried on inert support. As to the method: as §1
A further test concerns Pseudomonas aeruginosa. In words: Surface antibacterial test, CFU count on support. The settings on record: P. aeruginosa; 24 h of contact at ambient temperature; sample solution 10 000 ppm in DMSO dried on inert support. As to the method:
The tests were carried out at the surface: a solution of sample at 10 000 ppm in DMSO for a sample of HPA at 72% purity (i.e. […] of active material) was dried on an inert support. Once the solution had dried, a volume of inoculum of each bacterial strain was placed on the support in contact with the sample for 0 and 24 h at ambient temperature. In order to verify the nontoxicity of the DMSO, a pure solution of DMSO was dried on the support under the same conditions as the samples. A nontreated support (noted support control in FIG. 1) was also inoculated, in order to verify the stability of the strains under the conditions of the test. In order to quantify the contamination at each measurement time, a count was performed by spreading out, at the surface or in the mass, of decimal dilutions of the sample on TSA agar or Columbia agar (for C. acnes). The results were expressed in “colony-forming units” (CFUs) on the support. The Bacterial Strains Targeted are: Gram−: Pseudomonas aeruginosa

With “9(10)-hydroperoxy-10(9)-hydroxystearic acid [hydroperoxy alcohol of oleic acid]”, the “logarithmic reduction of the population relative to t=0” value is “approximately 5 log 10” with Staphylococcus aureus, “approximately 5 log 10” with Enterococcus hirae and “approximately 6 log 10” in the test on Cutibacterium acnes. The “logarithmic reduction in the population relative to t=0” value in the test with Pseudomonas aeruginosa is “approximately 4 log 10”.
